Laboratory results published in patent US20230124492A1, “COMPOSITIONS AND METHODS FOR SUBSTITUTED 7-(PIPERAZIN-1-YL)PYRAZOLO[1,5-A]PYRIMIDINE ANALOGS AS INHIBITORS OF KRAS” (The Board of Regents of the University of Texas System, priority 2019, published 2023).
Entries after “also recorded” stand apart in the source; their conditions may differ.

Experiments:
KRAS = KRAS (Homo sapiens, UniProt P01116, G12D); assay: Microscale thermophoresis (MST) binding affinity to KRAS (Table 1); details: 100 nM labeled KRAS, read-out: kD (dissociation constant)
KRAS, sequence (P01116 whole entry G12D): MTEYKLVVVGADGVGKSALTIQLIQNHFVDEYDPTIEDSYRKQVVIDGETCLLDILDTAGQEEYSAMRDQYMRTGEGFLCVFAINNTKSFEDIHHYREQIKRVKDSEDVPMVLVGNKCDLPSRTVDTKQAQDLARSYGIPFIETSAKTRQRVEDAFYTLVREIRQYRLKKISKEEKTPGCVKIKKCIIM
Procedure: Measurement of compound binding affinity to KKRAS using microscale thermophoresis (MST). MST is based on the movement of molecules in response to temperature gradient. […] KRAS was buffer-exchanged in the labeling buffer (40 mM HEPES, pH 7.5, 5 mM MgCl2, and 500 mM NaCl) using a spin column (provided in the kit) The concentration of the eluted protein was adjusted (10 to 20 μM) and 2-3 fold concentration of the dye (in labeling buffer) was added (200 μL final volume), The solution was incubated for 30 minutes at room temperature in the dark. Labeled KRAS was purified using the column provided in the kit or MST measurements, 16 point serial dilutions of ligands were made in MST Assay Buffer (40 mM HEPES, pH 7.5, 5 mM MgCl2, 100 mM NaCl+0.05% Tween-20+2-4% DMSO) and added to 100 nM KRAS. The solutions were loaded in capillaries and measurements were done using 20% LED power and 40% MST power. The data were fit in Igor Pro using Hill equation or the function in the instrument software.
Microscale thermophoresis (MST) assays were used to measure the affinity of lead compound analogs for KRAS. In a typical experiment, 100 nM KRAS labeled with a dye amine-reactive red NT-647 from NanoTemper) was mixed with different concentrations of ligand and incubated in a binding buffer (40 mM HEPES, pH 7.5, 5 mM MgCl2, 150 mM NaCl, 0.05% polysorbate 20, and 2% DMSO) at room temperature for 10 min before being loaded into a capillary. Thermophoresis is carried out and dissociation constant calculated by monitoring changes in fluorescence intensity. A monolith NT.115 Reader from NanoTemper can be used for MST experiments, with 40% MST and 20% LED power.
Dissociation constants (IQ)) calculated from the thermophoresis results of selected compounds according to the present disclosure are presented in Table 1 below.
Note: For FIGS. 1A-H 1 (as well as one of the curves in FIGS. 2A-I), dissociation constant (Kd) was determined using either Microscale Thermophoresis (MST) or Intrinsic Fluorescence (IF) assay. MST assay uses fluorescence to monitor movement of molecules in response to temperature gradient created by infrared laser.

GTP-KRAS = GTP-KRAS (Homo sapiens, UniProt P01116); assay: Binding of lead compound to GTP-KRAS; details: active GTP-bound KRAS
GTP-KRAS, sequence (P01116 1-188 isoform P01116-2): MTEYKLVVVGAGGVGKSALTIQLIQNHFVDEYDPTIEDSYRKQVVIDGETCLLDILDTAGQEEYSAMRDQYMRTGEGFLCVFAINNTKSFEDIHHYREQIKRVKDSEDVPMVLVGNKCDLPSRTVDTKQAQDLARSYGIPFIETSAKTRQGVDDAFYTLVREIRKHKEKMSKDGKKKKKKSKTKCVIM

GDP-KRAS = GDP-KRAS (Homo sapiens, UniProt P01116); assay: Binding of lead compound to GDP-KRAS (inactive KRAS); details: GDP-bound
GDP-KRAS, sequence (P01116 1-188 isoform P01116-2): as above

GTP-/GDP-bound NRAS = GTP-/GDP-bound NRAS (Homo sapiens, UniProt P01111); assay: Binding of lead compound to GTP-/GDP-bound NRAS
GTP-/GDP-bound NRAS, sequence (P01111 whole entry): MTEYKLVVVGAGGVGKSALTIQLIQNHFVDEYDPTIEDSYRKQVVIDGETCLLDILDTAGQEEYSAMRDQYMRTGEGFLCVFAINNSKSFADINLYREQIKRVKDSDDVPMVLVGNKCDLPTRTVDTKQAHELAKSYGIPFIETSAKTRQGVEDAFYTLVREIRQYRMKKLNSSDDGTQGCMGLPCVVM

GTP-/GDP-bound HRAS = GTP-/GDP-bound HRAS (Homo sapiens, UniProt P01112); assay: Binding of lead compound to GTP-/GDP-bound HRAS
GTP-/GDP-bound HRAS, sequence (P01112 whole entry): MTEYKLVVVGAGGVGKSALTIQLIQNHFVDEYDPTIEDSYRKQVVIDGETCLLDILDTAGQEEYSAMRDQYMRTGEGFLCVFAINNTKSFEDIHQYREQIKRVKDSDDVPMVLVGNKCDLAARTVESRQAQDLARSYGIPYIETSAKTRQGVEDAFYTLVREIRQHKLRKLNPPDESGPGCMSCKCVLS

KRAS effector binding = KRAS effector binding (Homo sapiens, UniProt P01116); assay: Effector (Raf) binding to KRAS; assay type: biochemical
KRAS effector binding, sequence (P01116 1-188 isoform P01116-2): as the sequence (P01116 1-188 isoform P01116-2) above

[1] = tested on: KRAS-mediated MAPK signaling; assay: KRAS-mediated MAPK signaling; assay type: cell-based
cancer cells = assay: Proliferation of cancer cells; assay type: cell-based

Kd (KRAS): 870 ± 180 nM
SMILES: Cc1nn2c(N3CCN(CCO)CC3)cc(-c3ccccc3)nc2c1-c1ccccc1 [Compound C1]
Affinity for GTP-KRAS (GTP-KRAS): sub micromolar affinity; also recorded: high affinity
Affinity for GDP-KRAS (inactive KRAS) (GDP-KRAS): much weaker affinity; also recorded: does not bind
Affinity for GTP-/GDP-bound NRAS (GTP-/GDP-bound NRAS): much weaker affinity; also recorded: does not bind
Affinity for GTP-/GDP-bound HRAS (GTP-/GDP-bound HRAS): much weaker affinity; also recorded: does not bind
Effect on effector binding (KRAS effector binding): significantly reduces; also recorded: disrupt
Effect on KRAS-mediated MAPK signaling / signal transduction through KRAS [1]: inhibits; also recorded: reduce
Effect on proliferation of cancer cells (cancer cells): inhibit
